Values joined by “and” are separate entries in the source; they are usually repeats but may differ in a detail not shown here. Equal values may be shown once.
How the values were obtained:
[1] = biological target: T1, hALDH2 (recombinant human mitochondria ALDH) (Homo sapiens, UniProt P05091); assay: ALDH2 inhibition assay (NADH formation, formaldehyde substrate); assay type: biochemical; details: for inhibition at 1 µM: read-out: hALDH2 inhibition (IC50 hALDH2 column)
T1 sequence (P05091 18-517): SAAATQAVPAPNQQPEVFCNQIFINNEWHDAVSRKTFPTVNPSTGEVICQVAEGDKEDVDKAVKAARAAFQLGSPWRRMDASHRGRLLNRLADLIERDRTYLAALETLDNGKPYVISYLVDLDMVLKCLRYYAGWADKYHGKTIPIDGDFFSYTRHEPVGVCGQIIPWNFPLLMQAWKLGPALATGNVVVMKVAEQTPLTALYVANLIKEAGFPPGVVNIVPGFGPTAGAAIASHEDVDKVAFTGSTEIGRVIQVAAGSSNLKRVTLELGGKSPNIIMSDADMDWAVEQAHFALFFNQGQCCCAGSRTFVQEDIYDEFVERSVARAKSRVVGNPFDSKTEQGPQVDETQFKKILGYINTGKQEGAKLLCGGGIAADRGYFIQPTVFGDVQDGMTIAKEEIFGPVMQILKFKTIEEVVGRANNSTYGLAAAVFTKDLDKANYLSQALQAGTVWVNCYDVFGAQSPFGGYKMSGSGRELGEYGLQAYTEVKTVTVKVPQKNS
Description: ALDH2 inhibition assays were performed in sodium phosphate buffer (50 mM, pH 7.4) containing 1.2 mM NAD^+ (Sigma N7004), 1 nM hALDH2 (recombinant human mitochondria ALDH), various concentrations of test compounds (from 0.03 nM to 1000 nM), and 0.15 mM freshly prepared formaldehyde solution (Ladd Research 20295). Reactions were initiated by the addition of formaldehyde and rates were recorded by monitoring NADH formation in a temperature controlled (25° C.) FluoroMax-2 Fluorimeter with excitation and emission wavelengths set at 340 and 460 nm, respectively. […] Normally, IC50 values were determined by fitting concentration-inhibition data to sigmoidal dose-response curves with two-floating parameters: IC50 and Hill coefficient. When tight binding situation was suspected, apparent Ki values were estimated by fitting dose-response data to Morrison's equation [Methods in Enzymology 63, 437-467, 1979].

hMAO-B = biological target: T2, hMAO-B (Homo sapiens, UniProt P27338); assay: MAO-B inhibition assay (Amplex Red, horseradish peroxidase-coupled); assay type: biochemical; details: for hMAO-B inhibition (IC50 hMAO-B) / inhibition at 10 µM: at 10 μM; for inhibition at 10 µM: read-out: hMAO-B inhibition (IC50 hMAO-B)
T2 construct: purchased Sigma M7441
T2 sequence (P27338 1-520): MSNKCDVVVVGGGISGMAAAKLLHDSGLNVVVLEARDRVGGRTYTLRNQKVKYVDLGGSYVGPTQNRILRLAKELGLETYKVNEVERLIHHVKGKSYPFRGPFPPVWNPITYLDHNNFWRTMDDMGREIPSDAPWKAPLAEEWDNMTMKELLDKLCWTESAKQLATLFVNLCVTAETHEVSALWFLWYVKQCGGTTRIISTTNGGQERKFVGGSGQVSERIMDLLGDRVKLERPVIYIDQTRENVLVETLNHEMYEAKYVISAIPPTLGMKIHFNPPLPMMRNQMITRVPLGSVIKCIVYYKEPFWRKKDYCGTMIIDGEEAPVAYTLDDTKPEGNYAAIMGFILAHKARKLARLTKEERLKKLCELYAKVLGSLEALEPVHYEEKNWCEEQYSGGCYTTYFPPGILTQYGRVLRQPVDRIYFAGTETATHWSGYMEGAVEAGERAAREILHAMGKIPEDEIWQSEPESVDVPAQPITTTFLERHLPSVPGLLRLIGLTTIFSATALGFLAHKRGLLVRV
Description: MAO-A (Sigma M7316) and MAO-B (Sigma M7441) inhibition assays were conducted in 96-well micro-plates according to the method described by Zhou et al. [Analytical Biochemistry 253, 169-174, 1997]. Both assays were performed in potassium phosphate buffer (0.1 M, pH 7.5) containing 0.5 mM tyramine (Sigma T2879), 0.12 mM N-acetyl-3,7-dihydrophenoxazine (Amplex Red, Invitrogen A12222), 1.2 unit/ml horseradish peroxidase (Sigma P2088), 0.6 unit/ml MAO-A or 2.5 unit/ml MAO-B, and various concentrations of test compounds (0.1 nM to 10 uM). Reactions were initiated by the addition of a pre-mixed solution of tyramine, horseradish peroxidase and Amplex Red, and were allowed to proceed at 37° C. for 30 min. Enzyme activities were determined by measuring absorbance at 570 nm (SpectralMax Plate reader), absorbance of oxidized Amplex Red generated by this horseradish peroxidase-coupled reaction. Nonspecifically formed products were determined in the presence of 2 and 10 µM clorgyline and deprenyl for MAO-A and MAO-B, respectively. IC50 values were determined by fitting concentration-inhibition data to sigmoidal dose-response curves with two-floating parameters: IC50 and Hill coefficient.

| IC50 [1] | Compound | further results |
| --- | --- | --- |
| 18 nM | 3-(4-hydroxyphenyl)-7-(2-{4-[3-(trifluoromethyl)phenyl]piperazinyl}ethoxy)chromen-4-one [PT-124] | hMAO-B inhibition (IC50 hMAO-B) (hMAO-B): 21% |
| 17 nM | 3-(4-hydroxyphenyl)-7-[(5-(3-pyridyl)(1,3,4-oxadiazol-2-yl))ethoxy]chromen-4-one [PT-113] | hMAO-B inhibition (IC50 hMAO-B) (hMAO-B): 30% |
| 48 nM | 7-({5-[3-fluoro-5-(trifluoromethyl)phenyl](1,2,4-oxadiazol-3-yl)}ethoxy)-3-(4-hydroxyphenyl)chromen-4-one [PT-79] | hMAO-B inhibition (IC50 hMAO-B) (hMAO-B): 18% |
| 16 nM and 20 nM | O=c1c(-c2ccc(O)cc2)coc2cc(OCc3noc(-c4ccc(F)cc4)n3)ccc12 [PT-11, 7-{[5-(4-fluorophenyl)(1,2,4-oxadiazol-3-yl)]methoxy}-3-(4-hydroxyphenyl)chromen-4-one] | inhibition at 10 µM (hMAO-B): 35% |
| 150 nM | COC(=O)c1cccc(COc2ccc3c(=O)c(-c4ccc(O)cc4)coc3c2)c1 [PT-33, methyl 3-{[3-(4-hydroxyphenyl)-4-oxochromen-7-yloxy]methyl}benzoate] | IC50 (hMAO-B): 300 nM |
| 98 nM | O=c1c(-c2ccc(O)cc2)coc2cc(OCc3cc(-c4cccc(C(F)(F)F)c4)on3)ccc12 [PT-45, 3-(4-hydroxyphenyl)-7-({5-[3-(trifluoromethyl)phenyl]isoxazol-3-yl}methoxy)chromen-4-one] | hMAO-B inhibition (IC50 hMAO-B) (hMAO-B): 7%; inhibition at 10 µM (hMAO-B): 7% |
| 5 nM | COC(=O)c1cnc(COc2ccc3c(=O)c(-c4ccc(O)cc4)coc3c2)o1 [PT-47, methyl 2-{[3-(4-hydroxyphenyl)-4-oxochromen-7-yloxy]methyl}-1,3-oxazole-5-carboxylate] | inhibition at 10 µM (hMAO-B): 34% |
| 16 nM | O=c1c(-c2ccc(O)cc2)coc2cc(OC[C@H](O)CNCc3cccc(C(F)(F)F)c3)ccc12 [PT-53, 7-[(2R)-2-hydroxy-3-({[3-(trifluoromethyl)phenyl]methyl}amino)propoxy]-3-(4-hydroxyphenyl)chromen-4-one] | hMAO-B inhibition (IC50 hMAO-B) (hMAO-B): 19%; inhibition at 10 µM (hMAO-B): 19% |
| 8 nM | O=c1c(-c2ccc(O)cc2)coc2cc(OC[C@H](O)CNCc3cc(F)cc(F)c3)ccc12 [PT-55, 7-((2R)-3-{[(3,5-difluorophenyl)methyl]amino}-2-hydroxypropoxy)-3-(4-hydroxyphenyl)chromen-4-one] | hMAO-B inhibition (IC50 hMAO-B) (hMAO-B): 14%; inhibition at 10 µM (hMAO-B): 14% |
| 25 nM | CS(=O)(=O)Nc1ccc(-c2coc3cc(OCc4cnc(-c5ccc(C(F)(F)F)cc5)s4)ccc3c2=O)cc1 [PT-83, 3-{4-[(methylsulfonyl)amino]phenyl}-7-({2-[4-(trifluoromethyl)phenyl](1,3-thiazol-5-yl)}methoxy)chromen-4-one] |  |
| 70 nM | O=C(COc1ccc2c(=O)c(-c3ccc(O)cc3)coc2c1)c1ccccc1C(F)(F)F [PT-85, 3-(4-hydroxyphenyl)-7-{2-oxo-2-[2-(trifluoromethyl)phenyl]ethoxy}chromen-4-one] |  |
|  | O=c1c(-c2ccc3[nH]ncc3c2)coc2cc(OCc3noc(-c4cc(F)cc(C(F)(F)F)c4)n3)ccc12 [PT-86, 3-(1H-indazol-5-yl)-7-({5-[5-fluoro-3-(trifluoromethyl)phenyl](1,2,4-oxadiazol-3-yl)}methoxy)chromen-4-one] | inhibition at 1 µM ([1]; at 1 μM): 68% |
| 17 nM | O=c1c(-c2ccc(OCc3ccccn3)cc2)coc2cc(OCc3ccccn3)ccc12 [PT-93, 7-(2-pyridylmethoxy)-3-[4-(2-pyridylmethoxy)phenyl]chromen-4-one] |  |
| 20 nM | O=c1c(-c2ccc(O)cc2)coc2cc(OCc3cncc(C(F)(F)F)c3)ccc12 [PT-94, 3-(4-hydroxyphenyl)-7-{[5-(trifluoromethyl)(3-pyridyl)]methoxy}chromen-4-one] |  |
|  | O=c1c(-c2ccc(O)cc2)coc2cc(OCc3cc(-c4ccc(Cl)cc4)on3)ccc12 [PT-95, 7-{[5-(4-chlorophenyl)isoxazol-3-yl]methoxy}-3-(4-hydroxyphenyl)chromen-4-one] | hALDH2 inhibition (IC50 hALDH2 column) ([1]; at 1 μM): 57%; inhibition at 1 µM ([1]; at 1 μM): 57% |
|  | O=c1c(-c2ccc(O)cc2)coc2cc(OCc3cc(-c4ccc(Cl)c(Cl)c4)on3)ccc12 [PT-96, 7-{[5-(3,4-dichlorophenyl)isoxazol-3-yl]methoxy}-3-(4-hydroxyphenyl)chromen-4-one] | inhibition at 1 µM ([1]; at 1 μM): 47% |
| 5 nM | O=c1c(-c2ccc(O)cc2)coc2cc(OCCNCc3cccc(C(F)(F)F)c3)ccc12 [PT-99, 3-(4-hydroxyphenyl)-7-[2-({[3-(trifluoromethyl)phenyl]methyl}amino)ethoxy]chromen-4-one] |  |
| 16 nM | O=C(O)c1coc(COc2ccc3c(=O)c(-c4ccc(O)cc4)coc3c2)n1 [PT-102, 2-{[3-(4-hydroxyphenyl)-4-oxochromen-7-yloxy]methyl}-1,3-oxazole-4-carboxylic acid] |  |
| 7 nM | O=c1c(-c2ccc(O)cc2)coc2cc(OCc3nnc(-c4cccnc4)o3)ccc12 [PT-110, 3-(4-hydroxyphenyl)-7-[(5-(3-pyridyl)(1,3,4-oxadiazol-2-yl))methoxy]chromen-4-one] |  |
| 32 nM | O=c1c(-c2ccc(O)cc2)coc2cc(OCc3nc(-c4cccnc4)no3)ccc12 [PT-114, 3-(4-hydroxyphenyl)-7-[(3-(3-pyridyl)(1,2,4-oxadiazol-5-yl))methoxy]chromen-4-one] |  |
| 38 nM | O=c1c(-c2ccc(O)cc2)coc2cc(OCc3nc(-c4cccc(C(F)(F)F)c4)no3)ccc12 [PT-115, 3-(4-hydroxyphenyl)-7-({3-[3-(trifluoromethyl)phenyl](1,2,4-oxadiazol-5-yl)}methoxy)chromen-4-one] |  |
| 23 nM | CNC(=O)c1coc(COc2ccc3c(=O)c(-c4ccc(O)cc4)coc3c2)n1 [PT-118, (2-{[3-(4-hydroxyphenyl)-4-oxochromen-7-yloxy]methyl}(1,3-oxazol-4-yl))-N-methylcarboxamide] |  |
| 68 nM | COc1ccc2c(COc3ccc4c(=O)c(-c5ccc(O)cc5)coc4c3)cc(=O)oc2c1 [PT-119, 4-{[3-(4-hydroxyphenyl)-4-oxochromen-7-yloxy]methyl}-7-methoxychromen-2-one] |  |
| 276 nM | CS(=O)(=O)Nc1ccc(-c2coc3cc(OCc4nnc(-c5ccc(F)cc5)o4)ccc3c2=O)cc1 [PT-120, 7-{[5-(4-fluorophenyl)(1,3,4-oxadiazol-2-yl)]methoxy}-3-{4-[(methylsulfonyl)amino]-phenyl}chromen-4-one] |  |
| 11 nM | Nc1cccc(-c2nnc(COc3ccc4c(=O)c(-c5ccc(O)cc5)coc4c3)o2)c1 [PT-121, 7-{[5-(3-aminophenyl)(1,3,4-oxadiazol-2-yl)]methoxy}-3-(4-hydroxyphenyl)chromen-4-one] |  |
| 12 nM | CCOC(=O)c1cnn(CCOc2ccc3c(=O)c(-c4ccc(O)cc4)coc3c2)c1 [PT-122, ethyl 1-{2-[3-(4-hydroxyphenyl)-4-oxochromen-7-yloxy]ethyl}pyrazole-4-carboxylate] |  |
